# In patent US6723747B2, “Substituted 6H-DiBenzo[c,h]chromenes as estrogenic agents” (Wyeth, priority 2001, dated 2004):
# Experiments:
# human ERβ = molecular target: T1, human ERβ (Homo sapiens, UniProt Q92731); test: Radioligand binding competition with [3H]-17β-estradiol, ERβ; settings: human ERβ ligand binding domain, read-out: ER-β IC50
# T1 construct: M214-Q530 of human ERβ; Flag (C); made in house; host or cells: E. coli BL21(DE3), clarified lysate
# human ERα = molecular target: T2, human ERα (Homo sapiens, UniProt P03372); test: Radioligand binding competition with [3H]-17β-estradiol, ERα; settings: human ERα ligand binding domain, read-out: ER-α IC50
# T2 construct: amino acids M250-V595 of human ERα; His (N); made in house; host or cells: E. coli BL21(DE3), clarified lysate
# T2 sequence (P03372 250-595): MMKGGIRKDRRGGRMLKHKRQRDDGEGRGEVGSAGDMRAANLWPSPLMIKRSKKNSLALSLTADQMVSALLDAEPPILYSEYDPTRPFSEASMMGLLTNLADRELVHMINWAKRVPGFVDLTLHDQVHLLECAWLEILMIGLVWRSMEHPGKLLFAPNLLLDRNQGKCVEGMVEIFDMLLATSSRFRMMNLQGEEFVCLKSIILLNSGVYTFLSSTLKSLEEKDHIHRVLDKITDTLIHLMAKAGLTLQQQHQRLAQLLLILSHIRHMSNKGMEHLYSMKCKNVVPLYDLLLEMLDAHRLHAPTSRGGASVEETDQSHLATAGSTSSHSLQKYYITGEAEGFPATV
# 129 SvE mice = test: Mouse uterotrophic test procedure (Procedure 2); type: in vivo; settings: 50 mg/kg subcutaneously, 4 days, immature mice
# Experimental: Procedure 2: Sexually immature (18 days of age) 129 SvE mice were obtained from Taconic and provided unrestricted access to a casein-based diet (Purina Mills 5K96C) and water. On day 22, 23, 24 and 25 the mice were dosed subcutaneously with compound or vehicle (corn oil). There were six mice/group and they were euthanized approximately 6 hours after the last injection by CO2 asphyxiation and pneumothorax. Uteri were removed and weighed after trimming associated fat and expressing any internal fluid. The following results (Table (2)) were obtained for representative compounds from the invention.
# casein kinase II mRNA = test: Mammary end bud test procedure (rat mammotrophic assay); type: in vivo; settings: 0.1 mg/kg sc + progesterone 30 mg/kg; ovariectomized rats; vehicle 1.61 ± 0.36
# Experimental: Estrogens are required for full ductal elongation and branching of the mammary ducts, and the subsequent development of lobulo-alveolar end buds under the influence of progesterone. In this test procedure, the mammotrophic activity of selected compounds of the invention was evaluated according to the following standard pharmacological test procedure. Twenty-eight day old Sprague-Dawley rats (Taconic Farms, Germantown, N.Y.) were ovariectomized and rested for nine days. […] For the final three days, rats were also dosed subcutaneously with progesterone (30 mg/kg). On the seventh day, rats were euthanised and a mammary fat pad excised. This fat pad was analyzed for casein kinase II mRNA as a marker of end bud proliferation. Casein kinase II mRNA was anlayzed by real-time RT-PCR. Briefly, RNA was isolated following Trizol (GibcoBRL, Grand Island, N.Y.) according to the manufacture's directions, Samples were treated with DNAse I using DNA-free kit (Ambion), and casein kinase II mRNA levels were measured by real-time RT-PCR using the Taqman Gold procedure (PE Applied Biosystems). […] Casein kinase II mRNA levels were normalized to 18s ribosomal RNA contained within each sample reaction using primers and probe supplied by PE Applied Biosystems. The following results were obtained for an example of the invention (Table (4)).
# [1] = system: progesterone receptor mRNA in the preoptic area of the rat brain; test: Progesterone receptor mRNA regulation test procedure; type: in vivo; settings: 10 mg/kg, vehicle 4.3 ± 1.5
# From the text: This test procedure can be used to evaluate the estrogenic or antiestrogenic activity of compounds from this invention [Shughrue, et al., Endocrinology 138: 5476-5484 (1997)].
# [2] = second experiment, vehicle 10.3 ± 0.8
# T1 sequence (Q92731 214-530): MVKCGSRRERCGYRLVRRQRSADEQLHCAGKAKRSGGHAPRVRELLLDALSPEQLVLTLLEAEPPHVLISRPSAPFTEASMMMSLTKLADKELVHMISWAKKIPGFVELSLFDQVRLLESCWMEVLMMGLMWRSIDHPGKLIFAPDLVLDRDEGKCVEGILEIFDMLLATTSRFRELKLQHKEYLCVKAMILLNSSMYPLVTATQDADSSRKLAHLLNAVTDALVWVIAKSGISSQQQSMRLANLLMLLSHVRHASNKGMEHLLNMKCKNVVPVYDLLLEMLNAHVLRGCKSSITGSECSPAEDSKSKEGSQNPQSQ
IC50 (human ERβ) [nM],IC50 (human ERα) [nM],melting point,Compound,"mean uterine weight ± SEM (129 SvE mice; first experiment, vehicle 9.5 ± 0.3) [mg]",mean uterine weight ± SEM (129 SvE mice; [2]) [mg],Casein kinase II mRNA/18S rRNA (mean ± SEM) (casein kinase II mRNA),Progesterone receptor mRNA (mean ± stdev) [1] [arbitrary units]
0.9,26,178 to 180 °C (dec.),"Oc1ccc2c(c1)COc1c-2cc(Br)c2cc(O)ccc12 [Example 1h, 12-Bromo-6H-dibenzo[c,h]chromene-2,8-diol]",–,–,–,–
3,71,118 to 121 °C,"CCCCc1cc2c(c3ccc(O)cc13)OCc1cc(O)ccc1-2 [Example 1s, 12-Butyl-6H-dibenzo[c,h]chromene-2,8-diol]",–,–,–,–
19,1230,> 250 °C,"N#Cc1cc2c(c3ccc(O)cc13)OCc1cc(O)c(F)cc1-2 [Example 1e, 9-fluoro-2,8-dihydroxy-6H-dibenzo[c,h]chromene-12-carbonitrile]",–,–,–,–
3.5,156,> 250 °C,"N#Cc1cc2c(c3ccc(O)c(Cl)c13)OCc1cc(O)ccc1-2 [Example 1f, 1-Chloro-2,8-dihydroxy-6H-dibenzo[c,h]chromene-12-carbonitrile]",–,–,–,–
1.4,17,213 to 214 °C,"Oc1ccc2c(c1)COc1c-2ccc2c(O)cccc12 [Example 1u, 6H-dibenzo[c,h]chromene-1,8-diol]",–,–,–,–
11,160,86 to 95 °C,"CCCc1cc2c(c3ccc(O)cc13)OCc1cc(O)ccc1-2 [Example 1t, 12-Propyl-6H-dibenzo[c,h]chromene-2,8-diol]",–,–,–,–
0.8,10,–,"Oc1ccc2c(c1)COc1c-2ccc2c(O)ccc(Cl)c12 [Example 1z, 4-chloro-6H-dibenzo[c,h]chromene-1,8-diol]",–,–,–,–
16,147,224 °C (dec.),"COc1cc2c(c3ccc(O)cc13)OCc1cc(O)ccc1-2 [Example 1l, 12-Methoxy-6H-dibenzo[c,h]chromene-2,8-diol]",–,–,–,–
2.7,74,216 to 218 °C,"Oc1ccc2c(c1)COc1c-2ccc2c(Cl)c(O)ccc12 [Example 1g, 1-Chloro-6H-dibenzo[c,h]chromene-2,8-diol]",–,–,–,–
0.27,10.4,–,"COc1c(Cl)c2c(c3ccc(O)cc13)OCc1cc(O)ccc1-2 [Example 1m, 11-Chloro-12-methoxy-6H-dibenzo[c,h]chromene-2,8-diol]",–,–,–,–
3.3,74,248 to 252 °C (dec.),"Oc1ccc2c(c1)COc1c-2ccc2cc(O)ccc12 [Example 1a, 6H-Dibenzo[c,h]chromene-2,8-diol]",–,–,–,–
2.9,44,184 to 192 °C,"CCc1cc2c(c3ccc(O)cc13)OCc1cc(O)ccc1-2 [Example 1p, 12-Ethyl-6H-dibenzo[c,h]chromene-2,8-diol]",–,–,–,–
79.7,460,192 to 194 °C,"Oc1ccc2c(c1)COc1c-2ccc2ccccc12 [Example 1c, 6H-Dibenzo[c,h]chromen-8-ol]",–,–,–,–
2.7,102,220 to 224 °C (dec.),"Cc1cc2c(c3ccc(O)cc13)OCc1cc(O)ccc1-2 [Example 1n, 12-Methyl-6H-dibenzo[c,h]chromene-2,8-diol]",–,–,–,–
2,77,194 to 197 °C,"Oc1ccc2c3c(cc(Br)c2c1)-c1cc(F)c(O)cc1CO3 [Example 1j, 12-Bromo-9-fluoro-6H-dibenzo[c,h]chromene-2,8-diol]",–,–,–,–

# The remaining lines, values behind:
Compound,IC50 (human ERβ) [nM],IC50 (human ERα) [nM],melting point,"mean uterine weight ± SEM (129 SvE mice; first experiment, vehicle 9.5 ± 0.3) [mg]",mean uterine weight ± SEM (129 SvE mice; [2]) [mg],Casein kinase II mRNA/18S rRNA (mean ± SEM) (casein kinase II mRNA),Progesterone receptor mRNA (mean ± stdev) [1] [arbitrary units]
"Oc1ccc2c3c(ccc2c1)-c1cc(F)c(O)cc1CO3 [Example 1b, 9-Fluoro-6H-dibenzo[c,h]chromene-2,8-diol]",1.8,20,230 to 231 °C (dec.),–,–,–,–
"Oc1ccc2c(c1)COc1c-2cc(Cl)c2c(O)cccc12 [Example 1v, 12-Chloro-6H-dibenzo[c,h]chromene-1,8-diol]",0.9,4.5,–,–,–,–,–
"C[C@]12CC[C@@H]3c4ccc(O)cc4CC[C@H]3[C@@H]1CC[C@@H]2O [17β-estradiol, reference compound]",–,–,–,46.7 ± 2.5,45.3 ± 1.9,39.0 ± 5.4,–
"Oc1ccc2c(c1)COc1c-2cc(-c2cccs2)c2cc(O)ccc12 [Example 1r, 12-Thien-2-yl-6H-dibenzo[c,h]chromene-2,8-diol]",48.3,217,191 to 193 °C,–,–,–,–
"N#Cc1cc2c(c3cccc(O)c13)OCc1cc(O)ccc1-2 [Example 1x, 1,8-Di hydroxy-6H-di benzo[c,h]chromene-12-carbonitrile]",1.5,86,–,–,–,–,–
"C=Cc1cc2c(c3ccc(O)cc13)OCc1cc(O)ccc1-2 [Example 1o, 12-Vinyl-6H-dibenzo[c,h]chromene-2,8-diol]",2.3,81,> 220 °C,–,–,–,–
"Oc1ccc2c3c(cc(Cl)c2c1)-c1cc(F)c(O)cc1CO3 [Example 1k, 12-Chloro-9-fluoro-6H-dibenzo[c,h]chromene-2,8-diol]",2,27,215 to 220 °C (dec.),–,–,–,–
"Oc1ccc2c(c1)COc1c-2cc(-c2ccsc2)c2cc(O)ccc12 [Example 1q, 12-Thien-3-yl—6H-dibenzo[c,h]chromene-2,8-diol]",29.2,154,179 to 182 °C,–,–,–,–
"Oc1ccc2c(c1)COc1c-2cc(Cl)c2cc(O)ccc12 [Example 1i, 12-Chloro-6H-dibenzo[c,h]chromene-2,8-diol]",1.1,17,212 to 216 °C (dec.),–,28.9 ± 2.0,–,57.5 ± 14.0
"Oc1ccc2c(c1)COc1c-2ccc2c(O)c(Cl)ccc12 [Example 1y, 2-Chloro-6H-dibenzo[c,h]chromene-1,8-diol]",1.65,17.6,181 to 182 °C (dec.),–,–,–,–
"Oc1ccc2c(c1)COc1c-2cc(Br)c2c(O)cccc12 [Example 1w, 12-Bromo-6H-dibenzo[c,h]chromene-1,8-diol]",1.4,10,–,–,–,–,–
